In patent US20240390311A1 (priority 2020, published 2024):
Like-named read-outs stand apart in the source and are kept apart here.

Key:
[1] = test system: MHV-1; format: in vivo, A/J mice; settings: for body weight loss / death rate / disease (illness) scores / lung coefficient index: Example 2, in water: GABA 2 mg/mL, homotaurine 0.25 mg/mL, baclofen 0.25 mg/mL, vs untreated controls
[2] = test system: autoreactive Th1 and Th17 cells; settings: cited from earlier work; for disease progression in mouse models of type 1 diabetes, multiple sclerosis, and rheumatoid arthritis: administration of GABA or homotaurine; for CD4+ and CD8+ Treg responses / autoreactive Th1 and Th17 cells: in vivo administration
[3] = cited from earlier work
[4] = test system: SARS-CoV-2; format: in vivo, K18-hACE2 mice
[5] = test system: SARS-CoV-2; format: in vivo, K18-hACE2 mice; settings: for mice surviving on days 7-8 post-infection: control 20%
[6] = test system: SARS-CoV-2; settings: NIH (NCATS) screen; cited from earlier work
[7] = hundreds of epilepsy patients, long-term studies
[8] = GABA 2 mg/mL treated vs untreated infected mice
[9] = GABA 2 mg/mL vs untreated infected mice, p<0.001
[10] = GABA-treated vs SC group, no statistically significant difference

In the case of `NCCCS(=O)(=O)O` [homotaurine], the body weight loss [1] was “significantly reduced”, the death rate [1] was “significantly reduced” and the “disease (illness) scores” value [1] was “significantly reduced”. For the same compound, the lung coefficient index [1] was “significantly reduced”, the “disease progression in mouse models of type 1 diabetes, multiple sclerosis, and rheumatoid arthritis” value [2] was “inhibits” and the “CD4+ and CD8+ Treg responses” value [2] was “promoting”. The “autoreactive Th1 and Th17 cells” value [2] was “inhibits”.
For `NCCCC(=O)O` [GABA, gamma-aminobutyric acid], the “ability to reduce seizures” value [3, 7] is listed as “no clinical benefit”, the adverse effects [3, 7] is listed as “no adverse effects” and the safety ([3]; phase Ib GABA oral dosing study) is listed as “safe”. The “serum GM-CSF level” value [4, 8] was “not found to have a statistically significant difference”, the “serum IFNα level” value [4, 8] was “not found to have a statistically significant difference” and the “serum IFNβ level” value [4, 8] was “not found to have a statistically significant difference”. The “serum IFNγ level” value [4, 8] was “not found to have a statistically significant difference”, the “serum IL-12 level” value [4, 8] was “not found to have a statistically significant difference” and the “serum IL-10 levels” value [4, 9] was “further significantly elevated”. The “serum IP-10 (CXCL10) levels” value [4, 9] was “significantly reduced”, the “TNFα production (serum)” value ([4]; GABA 2 mg/mL vs untreated infected, p<0.001) was “significantly mitigated” and the “mice with detectable IFNβ levels” value ([4]; GABA 2 mg/mL, 1/10 in healthy and infected control groups) was 3/10. The “mice with high levels of IFNγ” value ([4]; GABA 2 mg/mL, 3/10 in untreated infected group) was 1/10, the “median and mean levels of IFNα” value ([4]; GABA treated vs. untreated infected group, p=0.14) was “slightly elevated” and the “serum IL-1β level” value [4, 10] was “slightly reduced”. For the same compound, the “serum IL-6 level” value [4, 10] was “slightly reduced”, the “median and mean IFNγ levels” value ([4]; GABA-treated vs. untreated infected mice, p=0.25) was “reduced” and the “serum CCL2 levels” value ([4]; GABA-treated vs. untreated-infected mice, p=0.07) was “tending to be lower”. The “serum CCL5 level” value ([4]; among HC, SC and GABA groups) was “No statistically significant difference”, the “serum CXCL1 level” value ([4]; among HC, SC and GABA groups) was “No statistically significant difference” and the “mice survived at end of study on day 7” value ([5]; Example 4, GABA 2 mg/mL started 2 days post-infection, control 22%, p=0.004) was 88%. The “longitudinal mean illness scores” value ([5]; Example 4, GABA 2 mg/mL started 2 days post-infection, overall p=0.002) was “reduced”, the “mice that died during the 7-day observation period” value ([5]; Trial 1, GABA 0.2 mg/mL in water, control 3/5 died) was “none” and the “mice surviving on days 7-8 post-infection” value ([5]; Trial 2, GABA 0.2 mg/mL, p=0.004) was 80%. The “mice surviving on days 7-8 post-infection” value ([5]; Trial 2, GABA 2 mg/mL, p=0.018) was 80%, the illness scores ([5]; Trial 2, GABA 0.2 or 2.0 mg/mL in water from infection, vs control) was “significantly reduced” and the “SARS-CoV-2 interaction with its cellular receptor” value [6] was “did not interfere”. The SARS-CoV-2 replication [6] was “did not interfere”, the body weight loss [1] was “significantly reduced” and the death rate [1] was “significantly reduced”. The “disease (illness) scores” value [1] was “significantly reduced”, the “highest average illness score” value ([1]; GABA 20 mg/ml immediately after inoculation, day 7 post-infection, scale 0-5) was 1.6 and the “body weight at 14 days post-infection, of starting weight” value ([1]; GABA 20 mg/ml starting 3 days post-infection) was 90%. The “maximum mean illness score” value ([1]; GABA 20 mg/ml starting 3 days post-infection, scale 0-5) was 2.5, the mice that died ([1]; GABA 20 mg/ml starting 3 days post-infection, up to 14 days (death on day 9)) was 1/9 and the “average body weight below starting weight 14 days post-infection” value ([1]; GABA 20 mg/ml starting immediately after MHV-1 inoculation) was 7%. The mice that died ([1]; GABA 20 mg/ml starting immediately after MHV-1 inoculation, up to 14 days, control 3/9 survived) was “none”, the “disease progression in mouse models of type 1 diabetes, multiple sclerosis, and rheumatoid arthritis” value [2] was “inhibits” and the “CD4+ and CD8+ Treg responses” value [2] was “promoting”. For the same compound, the “autoreactive Th1 and Th17 cells” value [2] was “inhibits”.
With `NCC(CC(=O)O)c1ccc(Cl)cc1` (stereo not drawn) [Baclofen, baclofen] the body weight loss [1] was “did not significantly decrease”, the death rate [1] was “did not significantly decrease” and the “disease (illness) scores” value [1] was “slight but significant ability to reduce”. For the same compound, the lung coefficient index [1] was “did not significantly decrease”.
